From ChEMBL document CHEMBL1153803, “Parallel synthesis of chiral pentaamines and pyrrolidine containing bis-heterocyclic libraries. Multiple scaffolds with multiple building blocks: a double diversity for the identification of new antitubercular compounds” (Bioorg Med Chem Lett, 2009)
≈ marks a conversion by molar mass, not a printed value.

Columns and labels:
[1] = system: Mycobacterium tuberculosis; experiment: Antimicrobial activity against Mycobacterium tuberculosis H37Rv ATCC 27294 by microplate Almar blue assay; assay type: functional; details: Mycobacterium tuberculosis, H37Rv ATCC 27294; read-out: MIC
[2] = system: Mycobacterium tuberculosis; experiment: Antimicrobial activity against Mycobacterium tuberculosis H37Rv ATCC 27294 at 6.25 ug/mL by broth microdilution assay; assay type: functional
[3] = Selective index, the ratio of IC50 in the african green monkey Vero cells to the MIC to Mycobacterium tuberculosis H37Rv ATCC 27294; assay type: functional
[4] = system: Vero; experiment: Cytotoxicity against african green monkey Vero cells at after 72 hrs by MTT assay; assay type: cell-based, Chlorocebus sabaeus; details: Chlorocebus sabaeus, Vero, 72 h; read-out: IC50

Structure (SMILES) | MIC [1] [mg/L] | inhibition at 6.25 µg/mL [2] [%] | Selectivity Index [3] | IC50 [4] [mg/L]
N=C1NC[C@H](Cc2ccccc2)N1CC1CCCN1C[C@H](Cc1ccccc1)N1C[C@H](Cc2ccccc2)N(CCC23CC4CC(CC(C4)C2)C3)C1=N (stereo partly specified) | 3.9 (≈ 5.48 µM) | 91 | 3.7 | 14.5 (≈ 20.3 µM)
N=C1NC[C@H](Cc2ccccc2)N1CC1CCCN1C[C@H](Cc1ccccc1)N1C[C@H](Cc2ccccc2)N(CCC2CCCCC2)C1=N (stereo partly specified) | 3.9 (≈ 5.91 µM) | 94 | 3.8 | 13.9 (≈ 21.1 µM)
N=C1NC[C@H](Cc2ccccc2)N1CC1CCCN1C[C@H](Cc1ccccc1)N1C[C@H](Cc2ccccc2)N(CC2CCCCCC2)C1=N (stereo partly specified) | 3.9 (≈ 5.91 µM) | 92 | 10.1 | 39.5 (≈ 59.8 µM)
CC(C)[C@H]1CNC(=S)N1CC1CCCN1C[C@H](Cc1ccccc1)N1C[C@H](Cc2ccccc2)N(CCc2ccccc2)C1=S (stereo partly specified) |  | 90 |  | 
N=C1NC[C@H](Cc2ccccc2)N1C[C@@H]1CCCN1C[C@H](Cc1ccccc1)N1C[C@H](Cc2ccccc2)N(CC23CC4CC(CC(C4)C2)C3)C1=N | 3.9 (≈ 5.59 µM) | 91 |  | 
N=C1NC[C@H](Cc2ccccc2)N1CC1CCCN1C[C@H](Cc1ccccc1)N1C[C@H](Cc2ccccc2)N(CC2CCCC2)C1=N (stereo partly specified) | 7.8 (≈ 12.3 µM) | 93 | 4.3 | 33.5 (≈ 53.1 µM)
S=C1NC[C@H](Cc2ccccc2)N1CC1CCCN1C[C@H](Cc1ccccc1)N1C[C@H](Cc2ccccc2)N(CC2CCCCC2)C1=S (stereo partly specified) | 3.9 (≈ 5.73 µM) | 97 | 2.2 | 8.47 (≈ 12.5 µM)
c1ccc(CCN2CCN([C@H](CC3CCCCC3)CN3CCCC3CN3CCNC[C@@H]3Cc3ccccc3)C[C@@H]2Cc2ccccc2)cc1 (stereo partly specified) | 3.9 (≈ 5.89 µM) | 98 | 0.24 | 0.92 (≈ 1.39 µM)
CCC(C)CCN1C(=N)N([C@@H](Cc2ccccc2)CN2CCCC2CN2C(=N)NC[C@@H]2Cc2ccccc2)C[C@@H]1Cc1ccccc1 (stereo partly specified) | 7.8 (≈ 12.3 µM) | 91 | 4.1 | 32.3 (≈ 50.9 µM)
c1ccc(CCN2CCN([C@@H](Cc3ccc4ccccc4c3)CN3CCCC3CN3CCNC[C@@H]3Cc3ccccc3)C[C@@H]2Cc2ccccc2)cc1 (stereo partly specified) | 3.9 (≈ 5.52 µM) | 100 | 0.26 | 1 (≈ 1.42 µM)
NC[C@H](Cc1ccccc1)NC[C@@H]1CCCN1C[C@H](Cc1ccccc1)NC[C@H](Cc1ccccc1)NCC1CCCC1 | 6.25 (≈ 10.7 µM) |  |  | 
CCOc1ccc(CCN2CCN([C@@H](Cc3ccccc3)CN3CCCC3CN3CCNC[C@@H]3Cc3ccccc3)C[C@@H]2Cc2ccccc2)cc1 (stereo partly specified) | 3.9 (≈ 5.57 µM) | 98 | 0.26 | 1.03 (≈ 1.47 µM)
Cc1ccc(CN2CCN([C@@H](Cc3ccccc3)CN3CCCC3CN3CCNC[C@@H]3Cc3ccccc3)C[C@@H]2Cc2ccccc2)cc1 (stereo partly specified) | 3.9 (≈ 5.95 µM) | 98 | 0.23 | 0.88 (≈ 1.34 µM)
CC(C)(C)C1CCC(CN2CCN([C@@H](Cc3ccccc3)CN3CCCC3CN3CCNC[C@@H]3Cc3ccccc3)C[C@@H]2Cc2ccccc2)CC1 (stereo partly specified) | 2 (≈ 2.84 µM) | 97 | 0.58 | 1.15 (≈ 1.63 µM)
FC(F)(F)c1cccc(CCN2CCN([C@@H](Cc3ccccc3)CN3CCCC3CN3CCNC[C@@H]3Cc3ccccc3)C[C@@H]2Cc2ccccc2)c1 (stereo partly specified) | 3.9 (≈ 5.39 µM) | 99 | 0.29 | 1.12 (≈ 1.55 µM)
N=C1NC[C@H](Cc2ccccc2)N1CC1CCCN1C[C@H](Cc1ccccc1)N1C[C@H](Cc2ccccc2)N(CCc2ccc(Cl)c(Cl)c2)C1=N (stereo partly specified) | 3.9 (≈ 5.4 µM) | 95 | 6.3 | 24.5 (≈ 33.9 µM)
NC[C@H](Cc1ccccc1)NC[C@@H]1CCCN1C[C@H](Cc1ccccc1)NC[C@H](Cc1ccccc1)NCCc1ccc(-c2ccccc2)cc1 | > 6.25 |  |  | 
CC(CCN1CCN([C@@H](Cc2ccccc2)CN2CCCC2CN2CCNC[C@@H]2Cc2ccccc2)C[C@@H]1Cc1ccccc1)c1ccccc1 (stereo partly specified) | 3.9 (≈ 5.7 µM) | 99 | 0.22 | 0.87 (≈ 1.27 µM)
NC[C@H](Cc1ccccc1)NC[C@@H]1CCCN1C[C@H](Cc1ccccc1)NC[C@H](Cc1ccccc1)NCCC1CC2CCC1C2 (stereo partly specified) | 3.13 (≈ 5.03 µM) |  |  | 1.03 (≈ 1.66 µM)
c1ccc(C[C@H]2CNCCN2CC2CCCN2C[C@H](Cc2ccccc2)N2CCN(CCCC3CCCC3)[C@@H](Cc3ccccc3)C2)cc1 (stereo partly specified) | 3.9 (≈ 5.89 µM) | 100 | 0.11 | 0.42 (≈ 0.634 µM)
Cc1cccc(CCN2CCN([C@@H](Cc3ccccc3)CN3CCCC3CN3CCNC[C@@H]3Cc3ccccc3)C[C@@H]2Cc2ccccc2)c1 (stereo partly specified) | 3.9 (≈ 5.82 µM) | 99 | 0.27 | 1.05 (≈ 1.57 µM)
S=C1NC[C@H](Cc2ccccc2)N1C[C@@H]1CCCN1C[C@H](Cc1ccccc1)N1C[C@H](Cc2ccccc2)N(CC23CC4CC(CC(C4)C2)C3)C1=S | 6.25 (≈ 8.54 µM) | 98 |  | 

Structure (SMILES) | MIC [1] [mg/L] | inhibition at 6.25 µg/mL [2] [%] | Selectivity Index [3] | IC50 [4] [mg/L]
NC[C@H](Cc1ccccc1)NC[C@@H]1CCCN1C[C@H](Cc1ccccc1)NC[C@H](Cc1ccccc1)NCC12CC3CC(CC(C3)C1)C2 | 6.25 (≈ 9.65 µM) |  |  | 
CC(C)CCCN1CCN([C@@H](Cc2ccccc2)CN2CCCC2CN2CCNC[C@@H]2Cc2ccccc2)C[C@@H]1Cc1ccccc1 (stereo partly specified) | 2 (≈ 3.14 µM) | 99 | 0.45 | 0.89 (≈ 1.4 µM)
CCCCCCCN[C@H](CN[C@@H](Cc1ccccc1)CN1CCC[C@H]1CN[C@H](CN)Cc1ccccc1)Cc1ccccc1 | > 6.25 |  |  | 
c1ccc(C[C@H]2CNCCN2CC2CCCN2C[C@H](Cc2ccccc2)N2CCN(CCCCC3CCCCC3)[C@@H](Cc3ccccc3)C2)cc1 (stereo partly specified) | 2 (≈ 2.9 µM) | 99 | 0.5 | 1 (≈ 1.45 µM)
CC(C)[C@@H](CN1CCCC1CN1CCNC[C@@H]1Cc1ccccc1)N1CCN(CCc2ccccc2)[C@@H](Cc2ccccc2)C1 (stereo partly specified) | 3.9 (≈ 6.42 µM) | 100 | 0.26 | 1 (≈ 1.64 µM)
CCC(C)CCN1CCN([C@@H](Cc2ccccc2)CN2CCCC2CN2CCNC[C@@H]2Cc2ccccc2)C[C@@H]1Cc1ccccc1 (stereo partly specified) | 3.9 (≈ 6.13 µM) | 96 | 0.26 | 1 (≈ 1.57 µM)
CCCC[C@@H](CN1CCCC1CN1CCNC[C@@H]1Cc1ccccc1)N1CCN(CCc2ccccc2)[C@@H](Cc2ccccc2)C1 (stereo partly specified) | 3.9 (≈ 6.27 µM) | 100 | 0.26 | 1 (≈ 1.61 µM)
CC(C)(C)C1CCC(CN2C(=N)N([C@@H](Cc3ccccc3)CN3CCCC3CN3C(=N)NC[C@@H]3Cc3ccccc3)C[C@@H]2Cc2ccccc2)CC1 (stereo partly specified) | 7.8 (≈ 11.1 µM) | 94 | 1.95 | 15.2 (≈ 21.7 µM)
NC[C@H](Cc1ccccc1)NC[C@@H]1CCCN1C[C@H](Cc1ccccc1)NC[C@H](Cc1ccccc1)NCCC1CCCCC1 | 6.25 (≈ 10.2 µM) |  |  | 1.05 (≈ 1.72 µM)
NC[C@H](Cc1ccccc1)NC[C@@H]1CCCN1C[C@H](Cc1ccccc1)NC[C@H](Cc1ccccc1)NCCCC1CCCCC1 | 3.13 (≈ 5.02 µM) | 99 |  | 
c1ccc(C[C@H]2CNCCN2CC2CCCN2C[C@H](Cc2ccccc2)N2CCN(CCC3CCCCC3)[C@@H](Cc3ccccc3)C2)cc1 (stereo partly specified) | 3.9 (≈ 5.89 µM) | 99 | 0.16 | 0.62 (≈ 0.937 µM)
CCCCCCCN1CCN([C@@H](Cc2ccccc2)CN2CCCC2CN2CCNC[C@@H]2Cc2ccccc2)C[C@@H]1Cc1ccccc1 (stereo partly specified) | 3.9 (≈ 6 µM) | 99 | 0.26 | 1.03 (≈ 1.58 µM)
c1ccc(CCN2CCN([C@@H](Cc3ccccc3)CN3CCCC3CN3CCNC[C@@H]3Cc3ccccc3)C[C@@H]2CC2CCCCC2)cc1 (stereo partly specified) | 3.9 (≈ 5.89 µM) | 99 | 0.21 | 0.82 (≈ 1.24 µM)
Fc1ccc(CCN2CCN([C@@H](Cc3ccccc3)CN3CCCC3CN3CCNC[C@@H]3Cc3ccccc3)C[C@@H]2Cc2ccccc2)cc1 (stereo partly specified) | 3.9 (≈ 5.79 µM) | 98 | 0.27 | 1.05 (≈ 1.56 µM)
CC(C)CCCN1C(=N)N([C@@H](Cc2ccccc2)CN2CCCC2CN2C(=N)NC[C@@H]2Cc2ccccc2)C[C@@H]1Cc1ccccc1 (stereo partly specified) | 7.8 (≈ 12.3 µM) | 93 | 3.97 | 31 (≈ 48.9 µM)
Oc1ccc(CCN2CCN([C@@H](Cc3ccccc3)CN3CCCC3CN3CCNC[C@@H]3Cc3ccccc3)C[C@@H]2Cc2ccccc2)cc1 (stereo partly specified) | 3.9 (≈ 5.8 µM) | 99 | 0.28 | 1.11 (≈ 1.65 µM)
c1ccc(CCN2CCN([C@H](Cc3ccc4ccccc4c3)CN3CCCC3CN3CCNC[C@@H]3Cc3ccccc3)C[C@@H]2Cc2ccccc2)cc1 (stereo partly specified) | 3.9 (≈ 5.52 µM) | 100 | 0.27 | 1.06 (≈ 1.5 µM)
NC[C@H](Cc1ccccc1)NC[C@@H]1CCCN1C[C@H](Cc1ccccc1)NC[C@H](Cc1ccccc1)NCCCC1CCCC1 | 6.25 (≈ 10.2 µM) |  |  | 
NC[C@H](Cc1ccccc1)NC[C@@H]1CCCN1C[C@H](Cc1ccccc1)NC[C@H](Cc1ccccc1)NCCC12CC3CC(CC(C3)C1)C2 | 3.13 (≈ 4.73 µM) |  |  | 1.1 (≈ 1.66 µM)
OCC(CN1CCN([C@@H](Cc2ccccc2)CN2CCCC2CN2CCNC[C@@H]2Cc2ccccc2)C[C@@H]1Cc1ccccc1)c1ccccc1 (stereo partly specified) | 20 (≈ 29.2 µM) | 99 |  | 1.08 (≈ 1.57 µM)
NC[C@H](Cc1ccc2ccccc2c1)NC[C@@H]1CCCN1C[C@H](Cc1ccccc1)NC[C@H](Cc1ccccc1)NCCc1ccccc1 | 6.25 (≈ 9.56 µM) |  |  | 4.23 (≈ 6.47 µM)
c1ccc(C[C@H]2CNCCN2C[C@@H]2CCCN2C[C@H](Cc2ccccc2)N2CCN(CC34CC5CC(CC(C5)C3)C4)[C@@H](Cc3ccccc3)C2)cc1 | 3.9 (≈ 5.57 µM) | 99 |  | 
